For series [1] the following is noted: intravenous administration; cited from earlier work.
The next series relates to Monocytes. The conditions noted are these: 24-hour taurolidine treatment; cited from earlier work.
The subject of another series is TNFα. Put plainly: LPS-induced TNFα expression/secretion by PBMC, ELISA. Type of series: cell-based, human. The following applies: taurolidine 100 μg/ml, 4 h. How it is done:
FIG. 3A and FIG. 3B are graphs depicting taurolidine inhibition of LPS-induced alpha […] (TNFα) expression by monocytic cells as determined by assay procedures. FIG. 3A represents MM6 cells; FIG. 3B represents PBMC. The cells were induced with LPS (hatched bars: 100 ng/ml LPS in RPMI+10% BCS; solid bars: 10 ng/ml in AIM-V+0.01% BCS) in the presence of varying concentrations of taurolidine. After four hours, cell supernatants were collected for TNFα ELISA. Data are expressed as percent of TNFα levels measured in cell cultures treated with LPS alone (no taurolidine or vehicle). Experiments were performed with duplicate samples and were repeated at least three times. Values shown in FIG. 3A are from a representative experiment. Values shown in FIG. 3B are mean±SEM of three experiments.
Human peripheral blood mononuclear cells (PBMC) were isolated from heparinized blood by centrifugation using Histopaque as per manufacturer's instructions. The isolated PBMC were suspended in RPMI supplemented with 10% BCS and were used in experiments immediately thereafter. As determined by flow cytometry, PBMC were typically 11±2% monocytes and 80±13% lymphocytes, with the remaining cytometric events consistent in size with platelets and cell aggregates. […]
(In general: ELISA stands for enzyme-linked immunosorbent assay.)

The test system of the next series is HL-60. Description: LDH release (cell membrane integrity), HL-60. In kind it is cell-based, human. How it is done:
FIGS. 7A and 7B depict cell viability and growth rates for HL-60 cell line following taurolidine treatment, in terms of % trypan blue negative cells and % cell number, respectively. Cells were treated with various concentrations of taurolidine for 4 hours in AIM-V+0.01% BCS. After aliquots were collected for LDH assay, the remainder of the culture was rinsed in HBSS and resuspended in RPMI+10% BCS without taurolidine. Counts of trypan blue-negative cells (FIG. 7A), and total cell number (FIG. 7B), were recorded daily thereafter (with the measurement at Day 1 being made immediately after the 4 hour taurolidine treatment). Conditions were: no treatment (open circles); 25 μg/ml taurolidine (closed circles); 50 μg/ml taurolidine (open squares); 100 μg/ml taurolidine (closed squares); and vehicle alone (closed triangles). Doubling times were determined under each condition, and expressed as a percentage of the rate of doubling of untreated cells. These values are located to the right of the growth curves in (FIG. 7B). Cells were subcultured when they reached a concentration of 6×10^5 cells/ml. Data are mean±SEM of three experiments.
In these experiments, integrity of cell membranes following taurolidine treatment was assessed by exclusion of trypan blue and by measuring the release of LDH in MM6, K-562, HL-60, and REH cells. Since BCS contains significant amounts of LDH, these experiments were conducted on cells cultured in AIM-V+0.01% BCS. Four hour treatment of cells was conducted in AIM-V containing 0.01% BCS in order to allow subsequent LDH assay without interference from BCS (which occurs in when normal culture medium, containing 10% BCS, is used). Thus, MM6 cells (5×10^5 cells/ml) were treated with taurolidine for four hours in AIM-V+0.01% BCS, after which an aliquot of the cell suspension was removed for measurement of LDH release. A parallel aliquot of cells was lysed by three cycles of freeze/thaw and the quantity of LDH released was taken to be 100%. […]
^a LDH was measured immediately after four hour taurolidine treatment.

Consider `O=S1(=O)CCN(CN2CCS(=O)(=O)NC2)CN1` [taurolidine, 4,4'-methylenebis(perhydro-1,2,4-thiadiazin 1,1-dioxide)], for which, in series [1], the “alterations in hematologic variables, including white cell count” value is reported as “does not cause detectable alterations”. Also, the “LDH release by monocytes” value in the series with Monocytes is given as “no increase in LDH release”. Moreover, in the series on TNFα, the “inhibition of LPS-induced TNFα secretion” value is “maximally inhibit TNFα secretion”. Moreover, the “LDH in culture medium, % of that released by completely lysed cells” value in the series with HL-60 (HL-60, control 2.3±0.8%, 240 min) is given as 8.3±2.3%. Besides, the cytotoxicity at 50 µg/mL with HL-60 (Homo sapiens, HL-60, 50 μg/ml, 4 h, read-out: LDH (% of total)) worked out at 5%. In addition, the cytotoxicity at 100 µg/mL in the series on HL-60 (Homo sapiens, HL-60, 100 μg/ml, 4 h, read-out: LDH (% of total)) stood at 6%.

These data come from patent US6303596A, “Use of taurolidine for treatment of leukemias” (priority 2000, dated 2001).
